The assay deals with anti-OVA-specific IgG1 subclass antibody. Nature of the assay: Adjuvant activity: anti-OVA-specific IgG1 subclass antibody in serum after secondary immunization (Examples 12, 19, 20, 21). It counts as in vivo, BALB/c mice. The settings on record: two weeks from secondary immunization. The method, then:
8-Week-old female BALB/c mice were divided into groups (N=6), and each group was primarily immunized by dorsal-subcutaneous administration of (1) ovalbumin (OVA) (5 μg) dissolved in saline as an antigen (OVA single administration group), (2) OVA (5 μg) added to 5% αCD-added saline, (3) OVA (5 μg) added to 10% HP-β-CD-added saline, (4) OVA (5 μg) and SZ62 (0.256 μmol) dissolved or dispersed in 5% αCD-added saline, and (5) OVA (5 μg) and SZ62 (0.256 μmol) dissolved in 10% HP-β-CD-added saline, each per mouse. One week later, the secondary immunization was carried out by dorsal-subcutaneous administration of solutions or dispersions similar to those of the above-mentioned (1) to (5) again. Two weeks from the secondary immunization, the blood was extracted under anesthesia, and the obtained serum samples were measured for anti-OVA-specific IgG1 subclass antibody.
Measurement Method of Concentration of anti-OVA-specific IgG1 Subclass Antibody and anti-OVA-specific IgG2a Subclass Antibody
To a 96 well plate was added 5 μg/ml OVA at 100 μl/well, and the mixture was incubated at 4° C. overnight. After incubation, the mixture was washed three times with 200 μl of PBS-T (PBS+0.05% (v/v) Tween 20) per well, and blocked with 100 μl of 5% FCS/PBS solution per well at room temperature for 1 to for 2 hr. Thereafter, the mixture was washed three times with PBS-T (200 μl/well), a diluted serum sample (100 μl/well) or the same amount of 5% FCS/PBS solution as a control was added, to and the mixture was incubated at 37° C. for 1 hr. To calculate concentration of the antibody, the standard of an anti-OVA-specific IgG1 subclass antibody diluted with 2% FCS/PBS solution was added at 100 ng/ml, 50 ng/ml, 25 ng/ml, 12.5 ng/ml, 6.25 ng/ml, 3.125 ng/ml, 1.56 ng/ml, 0.781 ng/ml, 0.391 ng/ml, 0.195 ng/ml, 0.098 ng/ml, 0 ng/ml, per 1 well. When an anti-OVA-specific IgG2a subclass antibody was measured, the standard of an anti-OVA-specific IgG2a subclass antibody was added at 50 ng/ml, 25 ng/ml, 12,5 ng/ml, 6.25 ng/ml, 3.125 ng/ml, 1.56 ng/ml, 0.781 ng/ml, 0.391 ng/ml, 0.195 ng/ml, 0.098 ng/ml, 0.049 ng/ml, 0 ng/ml, per 1 well. […] Thereafter, the mixture was washed five times with PBS-T (200 μl/well), a diluted anti-biotin-HRP antibody was added (100 μl/well), and the mixture was incubated at 37° C. for another 30 min. Thereafter, the mixture was washed five times with PBS-T (200 μl/well), TMB substrate solution was added (100 μl/well), and the mixture was incubated at room temperature for 10- for 15 min. Thereafter, a reaction quenching liquid (2N sulfuric acid solution) was added (50 μl/well) to discontinue a color developing reaction, and the absorbance (OD Value=450 nm) was measured by a microplate reader. A standard curve was drawn from the measured OD values, and the concentration was calculated.
8-Week-old female BALB/c mice were divided into groups (N=6), and each group was primarily immunized by dorsal-subcutaneous administration of (1) ovalbumin (OVA) (5 μg) dissolved in saline as an antigen (OVA single administration group), (2) OVA 10 μg and Addavax™ (mixed with saline at 1:1) dissolved in saline (Addavax™ administration group), (3) OVA (5 μg) and SZ86 (0.256 μmol) dissolved or dispersed in 5% αCD-added saline (SZ86 administration group), (4) OVA (5 μg) and SZ90 (0.256 μmol) dissolved or dispersed in 5% αCD-added saline (SZ90 administration group), (5) OVA (5 μg) and SZ92 (0.256 μmol) dissolved or dispersed in 5% αCD-added saline (SZ92 administration group), (6) OVA (5 μg) and SZ99 (0.256 μmol) dissolved or dispersed in 5% αCD-added saline (SZ99 administration group), (7) OVA (5 μg) and SZ106 (0.256 μmol) dissolved or dispersed in 5% αCD-added saline (SZ106 administration group), each per mouse. One week later, the secondary immunization was carried out by dorsal-subcutaneous administration of solutions or dispersions similar to those of the above-mentioned (1)-(7) again.

[1] abbreviates: Example 19, OVA 5 μg + 0.256 μmol in 5% αCD saline s.c. (Addavax 1:1 with OVA 10 μg).
[2] abbreviates: Example 20, OVA 5 μg + 0.256 μmol in 5% αCD saline s.c. (Addavax 1:1 with OVA 10 μg).

Regarding `CCCCCCCCCCCCCCCC(=O)NC(=N)NCCCCN` [SZ62, N-hexadecanoylagmatine], the “anti-OVA-specific IgG1 subclass antibody production as compared to the OVA single administration group” value (Example 12, SZ62 0.256 μmol dispersed in 5% αCD-added saline, OVA 5 μg s.c.) is “significantly increased” and the “anti-OVA-specific IgG1 subclass antibody production as compared to the OVA single administration group” value (Example 12, SZ62 0.256 μmol dissolved in 10% HP-β-CD-added saline, OVA 5 μg s.c.) is “significantly increased”.

In the case of `CCCCCCCCCCCCCCCCCCC(CCCCCCCCCCCCCCCCCC)C(=O)N[C@@H](CC(C)C)C(=O)OC` [SZ86, N-(2-octadecyleicosanoyl)-L-leucine methyl ester], the “anti-OVA-specific IgG1 subclass antibody production as compared to the OVA single administration group” value runs as follows: under setting [1], “tended to increase”; under setting [2], “tended to increase”.

Regarding `CCCCCCCCCCCCCCCC(=O)N[C@@H](CC(C)C)C(=O)N(CC)CC` [SZ92, N^2-hexadecanoyl-N^1,N^1-diethyl-L-leucinamide], the “anti-OVA-specific IgG1 subclass antibody production as compared to the OVA single administration group” value is, setting by setting: under setting [1], “significantly increased”; under setting [2], “significantly increased”.

As for `CCCCCCCCCCCCCCCC(=O)N[C@@H](CC(C)C)C(=O)OCCCCCC` [SZ97, N-hexadecanoyl-L-leucine hexyl ester], the “anti-OVA-specific IgG1 subclass antibody production as compared to the OVA single administration group” value under setting [2] was “significantly increased”.

`CCCCCCCCCCCCCCCC(=O)N[C@@H](CCCNC(=N)N)C(=O)OCCCCCC.Cl` [SZ99, N^2-hexadecanoyl-L-arginine hexyl ester hydrochloride salt]: the “anti-OVA-specific IgG1 subclass antibody production as compared to the OVA single administration group” value under setting [1] is on record as “tended to increase”.

As for `CCCCCCCCCCCCCCCCCCCCCC(=O)N[C@@H](CCC(=O)O)C(=O)N(CC)CC` [SZ106, N^2-docosanoyl-N^1,N^1-diethyl-L-glutamic acid 1-amide], the “anti-OVA-specific IgG1 subclass antibody production as compared to the OVA single administration group” value runs as follows: under setting [1], “tended to increase”; under setting [2], “tended to increase”.

Turning to `CCCCCCCCCCCCCCCCCCCCCC(=O)NC(=N)NCCCCN.Cl` [SZ108, N-docosanoylagmatine hydrochloride salt], under setting [2], the “anti-OVA-specific IgG1 subclass antibody production as compared to the OVA single administration group” value was “tended to increase”.

For the origin of these results see patent US20180243421A1, “IMMUNOSTIMULATING AGENT” (AJINOMOTO CO., INC., priority 2015, published 2018).
